In US20230141403A1 (Hoffmann-La Roche Inc., priority 2020, published 2023):

The compounds below were run on Acinetobacter baumannii ATCC17978 (assay: Antimicrobial susceptibility testing: 90% growth inhibitory concentration (IC90) determination). Settings: ATCC17978, 90% growth inhibitory concentration, Iso-Sensitest broth, optical density at 600 nm over 16h, 35±2° C., read-out: AB ATCC 17978 IC90.
Assay type: cell-based
Method: Antimicrobial Susceptibility Testing:
90% Growth Inhibitory Concentration (IC90) Determination
The in vitro antimicrobial activity of the compounds was determined according to the following procedure:
The assay used a 10-points Iso-Sensitest broth medium to measure quantitatively the in vitro activity of the compounds against Acinetobacter baumannii ATCC17961 or ATCC17978.
Stock compounds in DMSO were serially twofold diluted (e.g. range from 50 to 0.097 μM final concentration) in 384 wells microtiter plates and inoculated with 49 μl the bacterial suspension in Iso-Sensitest medium to have a final cell concentration of ˜5×10^(5) CFU/ml in a final volume/well of 50 ul/well. Microtiter plates were incubated at 35±2° C.
Bacterial cell growth was determined with the measurement of optical density at λ=600 nm each 20 minutes over a time course of 16h. Growth inhibition was calculated during the logarithmic growth of the bacterial cells with determination of the concentration inhibiting 50% (IC50) and 90% (IC90) of the growth.
Table 1 provides the 90% growth inhibitory concentrations (IC90) in micromoles per liter of the compounds of present invention obtained against the strain Acinetobacter baumannii ATCC17978.

| SMILES | IC90 |
| --- | --- |
| COc1ccc(-c2cnc3c(Nc4ccc(S(=O)(=O)NCCOCCN)c(C)c4)nccn23)cc1 [Example 61, N-(2-(2-aminoethoxy)ethyl)-4-((3-(4-methoxyphenyl)imidazo[1,2-a]pyrazin-8-yl)amino)-2-methylbenzenesulfonamide] | 730 nM |
| COc1ccc(-c2cnc3c(Nc4ccc(NC(C)=O)cc4)nccn23)cc1Cl [Example 17, N-(4-((3-(3-chloro-4-methoxyphenyl)imidazo[1,2-a]pyrazin-8-yl)amino)phenyl)acetamide] | 430 nM |
| CC(=O)Nc1ccc(Nc2nccn3c(-c4ccc(OC(F)F)c(Cl)c4)cnc23)cc1 [Example 41, N-(4-((3-(3-chloro-4-(difluoromethoxy)phenyl)imidazo[1,2-a]pyrazin-8-yl)amino)phenyl)acetamide] | 520 nM |
| COc1ccc(-c2cnc3c(Nc4ccc(S(=O)(=O)N5CCOCC5)cc4)nccn23)cc1 [Example 78, 3-(4-methoxyphenyl)-N-(4-(morpholinosulfonyl)phenyl)imidazo[1,2-a]pyrazin-8-amine] | 580 nM |
| COCC(=O)Nc1ccc(Nc2nccn3c(-c4ccc(OC)cc4)cnc23)cc1 [Example 19, 2-Methoxy-N-{4-[3-(4-methoxy-phenyl)-imidazo[1,2-a]pyrazin-8-ylamino]-phenyl}-acetamide] | 770 nM |
| COc1ccc(-c2cnc3c(Nc4ccc(NC(C)=O)c(C)c4)nccn23)cc1 [Example 20, N-{4-[3-(4-Methoxy-phenyl)-imidazo[1,2-a]pyrazin-8-ylamino]-2-methyl-phenyl}-acetamide] | 110 nM |
| CC(=O)Nc1ccc(Nc2nccn3c(-c4ccc(OC(F)F)cc4)cnc23)cc1 [Example 8, N-[4-[[3-[4-(difluoromethoxy)phenyl]imidazo [1,2-a]pyrazin-8-yl]amino]phenyl] acetamide] | 820 nM |
| COc1ccc(-c2cnc3c(Nc4ccc(N5CCCC5=O)cc4)nccn23)cc1Cl [Example 9, 1-[4-[[3-(3-chloro-4-methoxy-phenyl)imidazo [1,2-a]pyrazin-8-yl]amino]phenyl] pyrrolidin-2-one; 2,2,2-trifluoroacetic acid] | 340 nM |
| CNC(=O)c1cc(Nc2nccn3c(-c4ccc(OC)cc4)cnc23)ccc1Cl [Example 76, 2-chloro-5-((3-(4-methoxyphenyl)imidazo[1,2-a]pyrazin-8-yl)amino)-N-methylbenzamide] | 730 nM |
| COc1ccc(-c2cnc3c(Nc4ccc(N5CCCC5=O)cc4)nccn23)cc1 [Example 18, 1-[4-[[3-(4-methoxyphenyl)imidazo[1,2-a]pyrazin-8-yl]amino]phenyl]pyrrolidin-2-one] | 330 nM |
| CC(=O)Nc1ccc(Nc2nccn3c(-c4ccc(F)cc4)cnc23)cc1C [Example 53, N-(4-((3-(4-fluorophenyl)imidazo[1,2-a]pyrazin-8-yl)amino)-2-methylphenyl)acetamide] | 360 nM |
| CCCCC(=O)NCCOCC(=O)Nc1ccc(Nc2nccn3c(-c4ccc(OC)cc4)cnc23)cc1C [Example 90, N-(2-(2-((4-((3-(4-methoxyphenyl)imidazo[1,2-a]pyrazin-8-yl)amino)-2-methylphenyl)amino)-2-oxoethoxy)ethyl)pentanamide] | 240 nM |
| CC(=O)Nc1ccc(Nc2nccn3c(-c4ccc(OC(F)F)cc4)cnc23)cc1C [Example 40] | 130 nM |
| COc1ccc(-c2cnc3c(Nc4ccc(NC(C)=O)c(CO)c4)nccn23)cc1 [Example 50, N-(2-(hydroxymethyl)-4-((3-(4-methoxyphenyl)imidazo[1,2-a]pyrazin-8-yl)amino)phenyl)acetamide] | 630 nM |
| COc1ccc(-c2cnc3c(Nc4ccc(NC(C)=O)c(C)c4)nccn23)c(F)c1 [Example 89, N-(4-((3-(2-fluoro-4-methoxyphenyl)imidazo [1,2-a]pyrazin-8-yl)amino)-2-methylphenyl) acetamide] | 280 nM |
| O=C1OCCN1c1ccc(Nc2nccn3c(-c4ccc(OC(F)F)cc4)cnc23)cc1 [Example 2, 3-[4-[[3-[4-(difluoromethoxy)phenyl]imidazo[1,2-a]pyrazin-8-yl]amino]phenyl]oxazolidin-2-one] | 250 nM |
| COc1ccc(-c2cnc3c(Nc4ccc(NC(=O)CO)cc4)nccn23)cc1Cl [Example 10, N-[4-[[3-(3-chloro-4-methoxy-phenyl)imidazo [1,2-a]pyrazin-8-yl]amino]phenyl]-2-hydroxy-acetamide; 2,2,2-trifluoroacetic acid] | 820 nM |
| CC(=O)Nc1ccc(Nc2nccn3c(-c4ccc(F)c(F)c4)cnc23)cc1C [Example 85, N-(4-((3-(3,4-difluorophenyl)imidazo[1,2-a]pyrazin-8-yl)amino)-2-methylphenyl) acetamide] | 340 nM |
| C#CCOc1ccc(-c2cnc3c(Nc4ccc(NC(C)=O)cc4)nccn23)cc1 [Example 65, N-(4-((3-(4-(prop-2-yn-1-yloxy)phenyl)imidazo[1,2-a]pyrazin-8-yl)amino)phenyl)acetamide] | 750 nM |
| CCN(CC)C(=O)CNS(=O)(=O)c1ccc(Nc2nccn3c(-c4ccc(OC)cc4)cnc23)cc1 [Example 80, N,N-diethyl-2-(4-((3-(4-methoxyphenyl)imidazo[1,2-a]pyrazin-8-yl)amino)phenylsulfonamido) acetamide] | 760 nM |
| COc1ccc(-c2cnc3c(Nc4ccc(NC(C)=O)c(C)c4)nccn23)cc1Cl [Example 11, N-[4-[[3-(3-chloro-4-methoxy-phenyl)imidazo [1,2-a]pyrazin-8-yl]amino]-2-methyl-phenyl]acetamide; 2,2,2-trifluoroacetic acid] | 87 nM |
| CNS(=O)(=O)c1ccc(Nc2nccn3c(-c4ccc(OC)c(Cl)c4)cnc23)cc1 [Example 91, 4-((3-(3-chloro-4-methoxyphenyl)imidazo[1,2-a]pyrazin-8-yl)amino)-N-methylbenzenesulfonamide] | 810 nM |
| Cc1cc(Nc2nccn3c(-c4ccc(OC(F)F)cc4)cnc23)ccc1N1CCCC1=O [Example 54, 1-(4-((3-(4-(difluoromethoxy)phenyl)imidazo[1,2-a]pyrazin-8-yl)amino)-2-methylphenyl)pyrrolidin-2-one] | 720 nM |
| Cc1cc(Nc2nccn3c(-c4ccc(OC(F)F)c(F)c4)cnc23)ccc1N1CCCC1=O [Example 56, 1-(4-((3-(4-(difluoromethoxy)-3-fluorophenyl)imidazo [1,2-a]pyrazin-8-yl)amino)-2-methylphenyl)pyrrolidin-2-one] | 250 nM |

Continued, values first:

| IC90 | SMILES |
| --- | --- |
| 370 nM | COc1ccc(-c2cnc3c(Nc4ccc(Cn5ccnc5)c(C)c4)nccn23)cc1 [Example 119, N-[4-(imidazol-1-ylmethyl)-3-methyl-phenyl]-3-(4-methoxyphenyl) imidazo[1,2-a]pyrazin-8-amine] |
| 250 nM | Cc1cc(Nc2nccn3c(-c4ccc(OC(F)F)cc4)cnc23)ccc1NC(=O)CN1CCC(N)C1 (centres unmarked) [Example 59, 2-(3-aminopyrrolidin-1-yl)-N-(4-((3-(4-(difluoromethoxy)phenyl)imidazo[1,2-a]pyrazin-8-yl)amino)-2-methylphenyl)acetamide] |
| 890 nM | CC(=O)Nc1ccc(Nc2nccn3c(-c4ccc(F)c(F)c4F)cnc23)cc1 [Example 82, N-(4-((3-(2,3,4-trifluorophenyl)imidazo[1,2-a]pyrazin-8-yl)amino)phenyl)acetamide] |
| 540 nM | COc1ccc(-c2cnc3c(Nc4ccc(Cn5ccnc5)cc4)nccn23)cc1 [Example 117, N-[4-(imidazol-1-ylmethyl)phenyl]-3-(4-methoxyphenyl)imidazo[1,2-a]pyrazin-8-amine] |
| 120 nM | CC(=O)Nc1ccc(Nc2nccn3c(-c4ccc(Cl)cc4)cnc23)cc1C [Example 43, N-(4-((3-(4-chlorophenyl)imidazo[1,2-a]pyrazin-8-yl)amino)-2-methylphenyl)acetamide] |
| 840 nM | COc1ccc(-c2cnc3c(Nc4ccc(NC(=O)CN5CCOCC5)cc4)nccn23)cc1Cl [Example 36, N-(4-((3-(3-chloro-4-methoxyphenyl)imidazo[1,2-a]pyrazin-8-yl)amino)phenyl)-2-morpholinoacetamide] |
| 550 nM | COc1ccc(-c2cnc3c(Nc4ccc(NC(C)=O)cc4)nccn23)c(F)c1 [Example 34, N-(4-((3-(2-fluoro-4-methoxyphenyl)imidazo[1,2-a]pyrazin-8-yl)amino)phenyl)acetamide] |
| 670 nM | Cc1cc(Nc2nccn3c(-c4ccc(OC(F)F)cc4)cnc23)ccc1CO [Example 121, (4-((3-(4-(difluoromethoxy)phenyl)imidazo[1,2-a]pyrazin-8-yl)amino)-2-methylphenyl) methanol] |
| 260 nM | COc1ccc(-c2cnc3c(Nc4ccc(NC(C)=O)c(C)c4)nccn23)c(Cl)c1 [Example 86, N-(4-((3-(2-chloro-4-methoxyphenyl)imidazo [1,2-a]pyrazin-8-yl)amino)-2-methylphenyl)acetamide] |
| 330 nM | O=C1COCCN1c1ccc(Nc2nccn3c(-c4ccc(OC(F)F)cc4)cnc23)cc1 [Example 4, 4-[4-[[3-[4-(difluoromethoxy)phenyl]imidazo[1,2-a]pyrazin-8-yl]amino]phenyl]morpholin-3-one] |
| 700 nM | CC(=O)Nc1ccc(Nc2nccn3c(-c4ccc(F)cc4F)cnc23)cc1C [Example 83, N-(4-((3-(2,4-difluorophenyl)imidazo[1,2-a]pyrazin-8-yl)amino)-2-methylphenyl)acetamide] |
